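Cultured in 96-well plates, cells were exposed to test compound for 48 hours across five concentrations. GI50: concentration for 50% inhibition of growth.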 Calls of active or inactive are those of the source. No stated cut-off is given here; in the data, active = GI50 up to about 1.1 µM and inactive = higher.
How the values were obtained:
Assay in all cases: inhibition of tumour cell growth, NCI panel, 48 h
[1] = system: OVCAR-4
[2] = system: COLO 205
[3] = system: SK-OV-3
[4] = system: DMS-273
[5] = system: CCRF-CEM
[6] = system: HCT-15
[7] = system: HOP-92
[8] = system: HL-60
[9] = system: NCI-H23
[10] = system: SR
[11] = system: M14
[12] = system: KM12
[13] = system: IGROV-1
[14] = system: NCI-H226
[15] = system: K562
[16] = system: OVCAR-5
[17] = system: SK-MEL-28
[18] = system: SN12C

SMILES	GI50 [1]	GI50 [2]	GI50 [3]	GI50 [4]	GI50 [5]	GI50 [6]	GI50 [7]	GI50 [8]	GI50 [9]	GI50 [10]	GI50 [11]	GI50 [12]	GI50 [13]	GI50 [14]	GI50 [15]	GI50 [16]	GI50 [17]	GI50 [18]
Cc1ccc(NC(=O)C2C3CCC(O3)C2C(=O)O)cc1 (configuration not stated)	> 100 µM (inactive)	35.7 µM (inactive)	> 83.9 µM (inactive)	> 57.8 µM (inactive)	> 44.8 µM (inactive)	> 44.9 µM	36.1 µM (inactive)	> 40.2 µM (inactive)	> 100 µM (inactive)	15.7 µM (inactive)	> 49.4 µM (inactive)	> 100 µM (inactive)	> 100 µM (inactive)	56.5 µM (inactive)	> 48.2 µM (inactive)	> 100 µM (inactive)	> 75 µM (inactive)	> 48.8 µM (inactive)
Cn1c(=O)c2c3ccccc3c(C(=O)c3ccccc3)n2c2ccccc21	22.6 µM (inactive)	5.51 µM (inactive)	–	3.27 µM (inactive)	9.82 µM (inactive)	3.4 µM	3.84 µM (inactive)	4.65 µM (inactive)	23.3 µM (inactive)	2.45 µM (inactive)	8.55 µM (inactive)	2.44 µM (inactive)	> 100 µM (inactive)	> 56.1 µM (inactive)	4.08 µM (inactive)	17.3 µM (inactive)	17.8 µM (inactive)	9.33 µM (inactive)
Cc1cc2c(=O)cc(-c3ccncc3)oc2c(C(=O)O)c1C	–	> 100 µM (inactive)	> 100 µM (inactive)	> 100 µM (inactive)	> 100 µM (inactive)	> 100 µM	> 100 µM (inactive)	> 100 µM (inactive)	> 100 µM (inactive)	> 100 µM (inactive)	–	–	> 100 µM (inactive)	> 100 µM (inactive)	–	> 100 µM (inactive)	> 100 µM (inactive)	> 100 µM (inactive)
CSC(=N)N1N=C2c3ccccc3CC[C@@H]2[C@@H]1c1ccccc1	14.8 µM (inactive)	13.1 µM (inactive)	18.1 µM (inactive)	15 µM (inactive)	19.3 µM (inactive)	15.7 µM	5.16 µM (inactive)	10.6 µM (inactive)	15.2 µM (inactive)	10.4 µM (inactive)	13.2 µM (inactive)	14.4 µM (inactive)	14.5 µM (inactive)	9.73 µM (inactive)	6.03 µM (inactive)	17.7 µM (inactive)	15.6 µM (inactive)	16.4 µM (inactive)
Cc1cccc(C(C)C)c1NC(=O)CCl	29.4 µM (inactive)	86.9 µM (inactive)	67.8 µM (inactive)	69.2 µM (inactive)	30.5 µM (inactive)	90.4 µM	28.6 µM (inactive)	39.9 µM (inactive)	22.9 µM (inactive)	47.8 µM (inactive)	65.8 µM (inactive)	55.7 µM (inactive)	–	> 100 µM (inactive)	56.2 µM (inactive)	> 100 µM (inactive)	> 100 µM (inactive)	56.2 µM (inactive)
C=CCCCC(C#N)(c1ccccc1)N1CCCC1 (configuration not stated)	> 100 µM (inactive)	> 100 µM (inactive)	> 100 µM (inactive)	> 100 µM (inactive)	> 100 µM (inactive)	> 100 µM	> 100 µM (inactive)	> 100 µM (inactive)	> 100 µM (inactive)	> 100 µM (inactive)	> 100 µM (inactive)	> 100 µM (inactive)	> 100 µM (inactive)	> 100 µM (inactive)	> 100 µM (inactive)	> 100 µM (inactive)	> 100 µM (inactive)	> 100 µM (inactive)
Cc1cccc(C)c1NC(=O)CCCC(=O)C(C#N)c1ccc(Cl)cc1 (configuration not stated)	> 100 µM (inactive)	> 100 µM (inactive)	> 100 µM (inactive)	> 100 µM (inactive)	> 100 µM (inactive)	> 100 µM	> 100 µM (inactive)	> 100 µM (inactive)	> 100 µM (inactive)	> 100 µM (inactive)	> 100 µM (inactive)	> 100 µM (inactive)	> 100 µM (inactive)	> 100 µM (inactive)	> 100 µM (inactive)	> 100 µM (inactive)	> 100 µM (inactive)	> 100 µM (inactive)
COc1c(OC)c(N)c2cc(C)c(=O)c(C)cc2c1N	> 100 µM (inactive)	35.4 µM (inactive)	> 100 µM (inactive)	> 100 µM (inactive)	41.9 µM (inactive)	99.8 µM	> 100 µM (inactive)	> 100 µM (inactive)	> 100 µM (inactive)	12.4 µM (inactive)	> 100 µM (inactive)	> 100 µM (inactive)	> 100 µM (inactive)	–	> 100 µM (inactive)	> 100 µM (inactive)	–	> 100 µM (inactive)
COc1c(OC2OC(CO)C(O)C(O)C2O)cc2c(c1OC)-c1ccc(OC)c(=O)cc1C(NC(C)=O)CC2 (configuration not stated)	> 100 µM (inactive)	> 28.3 µM (inactive)	> 100 µM (inactive)	> 100 µM (inactive)	> 100 µM (inactive)	> 100 µM	44.6 µM (inactive)	> 100 µM (inactive)	> 100 µM (inactive)	> 100 µM (inactive)	> 100 µM (inactive)	> 100 µM (inactive)	> 84.1 µM (inactive)	> 100 µM (inactive)	> 97.3 µM (inactive)	> 100 µM (inactive)	61 µM (inactive)	> 100 µM (inactive)
N#CC(C#N)=C1NC(=O)CC(=O)N1	> 100 µM (inactive)	> 100 µM (inactive)	> 100 µM (inactive)	> 100 µM (inactive)	> 100 µM (inactive)	> 100 µM	> 100 µM (inactive)	> 100 µM (inactive)	> 100 µM (inactive)	> 100 µM (inactive)	> 100 µM (inactive)	> 100 µM (inactive)	> 100 µM (inactive)	> 100 µM (inactive)	> 100 µM (inactive)	> 100 µM (inactive)	–	> 100 µM (inactive)
C#C[C@]1(O)CCCC2=CC(=O)CC[C@@]21C	–	> 100 µM (inactive)	> 100 µM (inactive)	> 100 µM (inactive)	> 100 µM (inactive)	> 100 µM	> 100 µM (inactive)	> 100 µM (inactive)	> 100 µM (inactive)	> 100 µM (inactive)	> 100 µM (inactive)	> 100 µM (inactive)	> 100 µM (inactive)	> 100 µM (inactive)	> 100 µM (inactive)	> 100 µM (inactive)	> 100 µM (inactive)	> 100 µM (inactive)
C=C1CC(CCCl)(c2ccccc2)OC1=O (configuration not stated)	> 100 µM (inactive)	29 µM (inactive)	> 100 µM (inactive)	34.7 µM (inactive)	20 µM (inactive)	19.7 µM	15.7 µM (inactive)	19.8 µM (inactive)	> 100 µM (inactive)	20.1 µM (inactive)	19.5 µM (inactive)	44.7 µM (inactive)	> 100 µM (inactive)	> 100 µM (inactive)	33.3 µM (inactive)	> 100 µM (inactive)	16.2 µM (inactive)	31.5 µM (inactive)
O=C(Nc1cccc(O)c1)C(=O)C(C(=O)c1ccc(Cl)c(Cl)c1)C1OC(=O)c2ccccc21 (configuration not stated)	13.3 µM (inactive)	15.9 µM (inactive)	12.8 µM (inactive)	10.1 µM (inactive)	12.5 µM (inactive)	15.5 µM	22.5 µM (inactive)	12.9 µM (inactive)	16.6 µM (inactive)	4.44 µM (inactive)	20.2 µM (inactive)	19.5 µM (inactive)	22.2 µM (inactive)	3.46 µM (inactive)	15 µM (inactive)	22 µM (inactive)	21.6 µM (inactive)	18.6 µM (inactive)
CCCCCC(=O)N[C@H]1CCc2cc(O)c(O)c(O)c2-c2ccc(SC)c(=O)cc21	18.1 µM (inactive)	23.3 µM (inactive)	23.3 µM (inactive)	32.5 µM (inactive)	23.2 µM (inactive)	22.5 µM	25.7 µM (inactive)	20.5 µM (inactive)	21.6 µM (inactive)	22.8 µM (inactive)	19 µM (inactive)	39.6 µM (inactive)	38.4 µM (inactive)	28.2 µM (inactive)	6.47 µM (inactive)	> 100 µM (inactive)	48.3 µM (inactive)	20.3 µM (inactive)
